Blank lines part the entries; values can stand above or below the compound they belong to.
Legend:
freely moving rats = experiment: Sleep study of (R)-amisulpride, EEG/EMG (Example 3A); assay type: in vivo, rat; conditions: 10, 30, 100 mg/kg, p.o.
Description: Rapid eye movement (REM) sleep time, non-rapid eye movement (NREM) sleep time, WAKE time were measured using electroencephalogram (EEG) and electromyogram (EMG) recordings. […] EEG and EMG recordings were made for 6 hr starting at the beginning of the light phase. Vehicle (0.05 N HCl/0.5% Methyl Cellulose 400 solution) or dosing suspensions were orally administered 10 min before the beginning of light phase. The volume of administration was 5 mL/kg. The order of drug treatment varied pseudo-randomly and at least 1 week was allowed between the experiments for individual animals.
A radio transmitter (TL11M2-F40-EET; Data Science International, New Brighton, Minn., USA) was implanted subcutaneously in the back of anesthetized animals, and a pair of electrode wires was stereotaxically implanted into the skull in the following locations: one in the frontoparietal (2 mm anterior to the bregma and 2 mm left to the midline), and the other in parietal (5 mm posterior to the bregma and 2 mm right to the midline) areas. The EEG electrodes were fixed using dental cement. Electromyograms (EMG) were recorded from the dorsal neck muscle. […] EEG/EMG were recorded in the home cages in a soundproof box using Dataquest A.R.T. software (Data Science International, New Brighton, Minn., USA) at a sampling rate of 500 Hz. […]

healthy volunteers [1] = experiment: REM suppression polysomnography (PSG) study of (R)-amisulpride (Example 5); assay type: in vivo, human
Description: REM suppression was the biomarker used to determine clinically-significant levels of 5-HT7 antagonism and its pharmacodynamics. REM suppression was assessed by total time in minutes spent in REM sleep and by the latency in minutes to REM sleep. […] REM suppression in human volunteers is an established translational biomarker useful to identify doses for antidepressant effects in patients.
The primary endpoint was REM sleep suppression as determined at post dose time points in the measures of latency to REM sleep, REM sleep time in minutes, and percent decrease in REM sleep time relative to total sleep time.
The REM suppression time value is the Least Square Mean differences from placebo, and the error bars represent the 90% confidence interval (CI).
The results presented in Tables 21-23 were determined from an analysis of the date based on a linear mixed model with terms for treatment, period, and treatment sequence as fixed effects, respective baseline PSG value as a continuous covariate, and treatment-by-baseline PSG interaction, and subject nested within sequence as a random effect, the Kenward and Roger correction for the degrees of freedom and an unstructured covariance structure to model the intrasubject correlation. The abbreviations used in Tables 21-23 are as follows: PSG=polysomnography; CI=confidence interval; LS=least-squares; REM=rapid eye movement; SE=standard error.

healthy volunteers [2] = experiment: concentration-QTc analysis, linear mixed-effects model (Example 7A); assay type: in vivo, human
Description: The effect of amisulpride (enantiomers and total) on change-from-baseline QTcF and heart rate (ΔQTcF and ΔHR) was evaluated based on a linear mixed-effects model at each nominal post-dosing time point (“by-time point analysis”) using the intersection union test. In the concentration-QTc analysis (primary analysis), the full model included ΔQTcF as the dependent variable, time-matched plasma concentrations of R- and S- and total amisulpride enantiomers as the explanatory variates, centered baseline QTcF (i.e., baseline QTcF for individual subject subtracting the population mean baseline QTcF for all subjects) as an additional covariate, a fixed intercept, and random effect for both intercept and slopes per subject, when applicable. A pre-specified model selection procedure was then performed to choose a primary model from among the full model and reduced models from possible first order combinations (without quadratic and interaction terms) among these 3 analytes of concentrations of R- and S-enantiomers and total amisulpride (including models with only 1 analyte and with any 2 analytes).
The observations and a linear mixed-effects model parameters derived therefrom was used to estimate the ΔQTcF at the observed Cmax of the formulation Lots studied.

[3] = human, in vivo, po
clinical = conditions: human, in vivo
[4] = Coukell et al 1996; cited from earlier work
[5] = linear mixed-effects model, total amisulpride concentration vs ΔQTcF

Compound: CCN1CCC[C@@H]1CNC(=O)c1cc(S(=O)(=O)CC)c(N)cc1OC [(R)-amisulpride, R-4-Amino-N-[(1-ethyl-2-pyrrolidinyl)methyl]-5-(ethylsulfonyl)-2-methoxybenzamide]
NREM sleep time and WAKE time (freely moving rats): no observed effect
REM sleep duration (freely moving rats; light phase): reduced REM sleep duration in dose-dependent manner
tolerability (healthy volunteers [1]; healthy subjects): well tolerated
vital signs and ECGs (healthy volunteers [1]; in vivo): normal

washout observed for blood plasma concentration [3]: approximately 24 hour
concentration at 0.5 hr (clinical): 346 ng/mL
concentration at 1 hr (clinical): 294 ng/mL
concentration at 2 hr (clinical): 432 ng/mL
concentration at 3 hr (clinical): 516 ng/mL
concentration at 4 hr (clinical): 272 ng/mL
concentration at 6 hr (clinical): 163 ng/mL
concentration at 8 hr (clinical): 96.8 ng/mL
concentration at 10 hr (clinical): 69.9 ng/mL
concentration at 12 hr (clinical): 55.6 ng/mL
concentration at 24 hr (clinical): 21.2 ng/mL
concentration at 36 hr (clinical): 9.84 ng/mL
concentration at 48 hr (clinical): 7.02 ng/mL
concentration at 72 hr (clinical): 1.48 ng/mL
Compound: CCN1CCCC1CNC(=O)c1cc(S(=O)(=O)CC)c(N)cc1OC (stereo not drawn) [amisulpride, 4-amino-N-[(1-ethylpyrrolidin-2-yl)methyl]-5-ethylsulfonyl-2-methoxy-benzamide]
estimated population slope of the concentration-QTc relationship (healthy volunteers [2]; 90% CI: 0.0257 to 0.0369): 0.031 ms per ng/mL
intercept of the concentration-QTc relationship (healthy volunteers [2]; 90% CI: −4.88 to 0.27): -2.3 ms
Centered Baseline Effect of concentration-QTc relationship model (healthy volunteers [2]; [5]): -0.23 ms
Intercept of concentration-QTc relationship model (healthy volunteers [2]; [5]): -2.31 ms
Total Amisulpride Slope of concentration-QTc relationship model (healthy volunteers [2]; [5]): 0.031 ms per ng/mL
terminal plasma half-life [4]: approximately 12 hours

— patent US11160758B2, “Modified release formulations and uses thereof” (Sunovion Pharmaceuticals Inc., priority 2019, dated 2021)
